{"source": "patent US20080008674A1", "about": "“Use of C-glycoside derivative for improving the skin's barrier function” (L'OREAL, priority 2006, published 2008)", "tested_on": "reconstructed epidermis (Episkin J13)", "assay": "Penetration of radiolabelled caffeine through reconstructed human epidermis (barrier function)", "assay_type": "cell-based", "settings": "for passage of [14C]-caffeine, percentage of passage relative to an untreated control: 5 days treatment", "procedure": "The efficacy of the barrier function of a skin may be evaluated by measuring the passage through it of a labelled molecule, for instance radiolabelled caffeine.\nSkin with an improved barrier function is thus characterized in that it slows down, or even reduces, the passage of the said molecule through its epidermis.\nTwo batches of reconstructed epidermis (Episkin J13) (batches 1 and 2) are treated for 5 days with the product C-β-D-xylopyranoside-n-propan-2-one, which is applied in the culture medium at a final concentration of 0.2% and 0.04% by weight/volume.\nVitamin C is used as reference molecule at a concentration of 200 μg/ml, in systemic treatment.\nAfter 5 days of culturing, 100 μl and 2 UCi/ml, i.e. 0.04 mM of [^14C]-caffeine (radiolabelled caffeine) and 0.35 mM of cold caffeine (non-radiolabelled caffeine) are applied to the surface, and kinetics of uptake into the medium are determined at eight different times.\nThe results are expressed as a percentage of passage relative to an untreated control.", "note": "Marks after values point to notes of the source that are not given here.", "data": [{"smiles": "O=C1O[C@H]([C@@H](O)CO)C(O)=C1O", "note": "[Vitamin C, reference compound]", "values": [{"measurement": "passage of [14C]-caffeine, percentage of passage relative to an untreated control", "setting": "Batch 1 of reconstructed epidermis, 200 μg/ml, sample taken at 1 h 30", "result": 81, "unit": "%"}, {"measurement": "passage of [14C]-caffeine, percentage of passage relative to an untreated control", "setting": "Batch 1 of reconstructed epidermis, 200 μg/ml, sample taken at 3 h", "result": 95, "unit": "%"}, {"measurement": "passage of [14C]-caffeine, percentage of passage relative to an untreated control", "setting": "Batch 1 of reconstructed epidermis, 200 μg/ml, sample taken at 4 h", "result": 81, "unit": "%"}, {"measurement": "passage of [14C]-caffeine, percentage of passage relative to an untreated control", "setting": "Batch 1 of reconstructed epidermis, 200 μg/ml, sample taken at 5 h", "result": "80 * %"}, {"measurement": "passage of [14C]-caffeine, percentage of passage relative to an untreated control", "setting": "Batch 1 of reconstructed epidermis, 200 μg/ml, sample taken at 6 h", "result": 86, "unit": "%"}, {"measurement": "passage of [14C]-caffeine, percentage of passage relative to an untreated control", "setting": "Batch 1 of reconstructed epidermis, 200 μg/ml, sample taken at 7 h", "result": "75 * %"}, {"measurement": "passage of [14C]-caffeine, percentage of passage relative to an untreated control", "setting": "Batch 1 of reconstructed epidermis, 200 μg/ml, sample taken at 9 h", "result": 85, "unit": "%"}, {"measurement": "passage of [14C]-caffeine, percentage of passage relative to an untreated control", "setting": "Batch 1 of reconstructed epidermis, 200 μg/ml, sample taken at 24 h", "result": 85, "unit": "%"}, {"measurement": "passage of [14C]-caffeine, percentage of passage relative to an untreated control", "setting": "Batch 2 of reconstructed epidermis, 200 μg/ml, sample taken at 1 h", "result": 117, "unit": "%"}, {"measurement": "passage of [14C]-caffeine, percentage of passage relative to an untreated control", "setting": "Batch 2 of reconstructed epidermis, 200 μg/ml, sample taken at 2 h", "result": "77 * %"}, {"measurement": "passage of [14C]-caffeine, percentage of passage relative to an untreated control", "setting": "Batch 2 of reconstructed epidermis, 200 μg/ml, sample taken at 3 h", "result": 84, "unit": "%"}, {"measurement": "passage of [14C]-caffeine, percentage of passage relative to an untreated control", "setting": "Batch 2 of reconstructed epidermis, 200 μg/ml, sample taken at 4 h", "result": "86 * %"}, {"measurement": "passage of [14C]-caffeine, percentage of passage relative to an untreated control", "setting": "Batch 2 of reconstructed epidermis, 200 μg/ml, sample taken at 5 h", "result": "71 * %"}, {"measurement": "passage of [14C]-caffeine, percentage of passage relative to an untreated control", "setting": "Batch 2 of reconstructed epidermis, 200 μg/ml, sample taken at 6 h", "result": 94, "unit": "%"}, {"measurement": "passage of [14C]-caffeine, percentage of passage relative to an untreated control", "setting": "Batch 2 of reconstructed epidermis, 200 μg/ml, sample taken at 7 h", "result": 95, "unit": "%"}, {"measurement": "passage of [14C]-caffeine, percentage of passage relative to an untreated control", "setting": "Batch 2 of reconstructed epidermis, 200 μg/ml, sample taken at 8 h", "result": 96, "unit": "%"}, {"measurement": "passage of [14C]-caffeine, percentage of passage relative to an untreated control", "setting": "Batch 2 of reconstructed epidermis, 200 μg/ml, sample taken at 9 h", "result": 85, "unit": "%"}, {"measurement": "passage of [14C]-caffeine, percentage of passage relative to an untreated control", "setting": "Batch 2 of reconstructed epidermis, 200 μg/ml, sample taken at 10 h", "result": 95, "unit": "%"}, {"measurement": "passage of [14C]-caffeine, percentage of passage relative to an untreated control", "setting": "Batch 2 of reconstructed epidermis, 200 μg/ml, sample taken at 24 h", "result": 99, "unit": "%"}]}, {"smiles": "CC(=O)C[C@@H]1OC[C@@H](O)[C@H](O)[C@H]1O", "note": "[C-β-D-xylopyranoside-n-propan-2-one]", "values": [{"measurement": "passage of [14C]-caffeine, percentage of passage relative to an untreated control", "setting": "Batch 1 of reconstructed epidermis, 0.04% AM, sample taken at 1 h 30", "result": 52, "unit": "%"}, {"measurement": "passage of [14C]-caffeine, percentage of passage relative to an untreated control", "setting": "Batch 1 of reconstructed epidermis, 0.04% AM, sample taken at 3 h", "result": 66, "unit": "%"}, {"measurement": "passage of [14C]-caffeine, percentage of passage relative to an untreated control", "setting": "Batch 1 of reconstructed epidermis, 0.04% AM, sample taken at 4 h", "result": "64 * %"}, {"measurement": "passage of [14C]-caffeine, percentage of passage relative to an untreated control", "setting": "Batch 1 of reconstructed epidermis, 0.04% AM, sample taken at 5 h", "result": "73 * %"}, {"measurement": "passage of [14C]-caffeine, percentage of passage relative to an untreated control", "setting": "Batch 1 of reconstructed epidermis, 0.04% AM, sample taken at 6 h", "result": "70 * %"}, {"measurement": "passage of [14C]-caffeine, percentage of passage relative to an untreated control", "setting": "Batch 1 of reconstructed epidermis, 0.04% AM, sample taken at 7 h", "result": "69 * %"}, {"measurement": "passage of [14C]-caffeine, percentage of passage relative to an untreated control", "setting": "Batch 1 of reconstructed epidermis, 0.04% AM, sample taken at 9 h", "result": "77 * %"}, {"measurement": "passage of [14C]-caffeine, percentage of passage relative to an untreated control", "setting": "Batch 1 of reconstructed epidermis, 0.04% AM, sample taken at 24 h", "result": "75 * %"}, {"measurement": "passage of [14C]-caffeine, percentage of passage relative to an untreated control", "setting": "Batch 1 of reconstructed epidermis, 0.2% AM, sample taken at 1 h 30", "result": 66, "unit": "%"}, {"measurement": "passage of [14C]-caffeine, percentage of passage relative to an untreated control", "setting": "Batch 1 of reconstructed epidermis, 0.2% AM, sample taken at 3 h", "result": 94, "unit": "%"}, {"measurement": "passage of [14C]-caffeine, percentage of passage relative to an untreated control", "setting": "Batch 1 of reconstructed epidermis, 0.2% AM, sample taken at 4 h", "result": "59 * %"}, {"measurement": "passage of [14C]-caffeine, percentage of passage relative to an untreated control", "setting": "Batch 1 of reconstructed epidermis, 0.2% AM, sample taken at 5 h", "result": "63 * %"}, {"measurement": "passage of [14C]-caffeine, percentage of passage relative to an untreated control", "setting": "Batch 1 of reconstructed epidermis, 0.2% AM, sample taken at 6 h", "result": "63 * %"}, {"measurement": "passage of [14C]-caffeine, percentage of passage relative to an untreated control", "setting": "Batch 1 of reconstructed epidermis, 0.2% AM, sample taken at 7 h", "result": "66 * %"}, {"measurement": "passage of [14C]-caffeine, percentage of passage relative to an untreated control", "setting": "Batch 1 of reconstructed epidermis, 0.2% AM, sample taken at 9 h", "result": "79 * %"}, {"measurement": "passage of [14C]-caffeine, percentage of passage relative to an untreated control", "setting": "Batch 1 of reconstructed epidermis, 0.2% AM, sample taken at 24 h", "result": "70 * %"}, {"measurement": "passage of [14C]-caffeine, percentage of passage relative to an untreated control", "setting": "Batch 2 of reconstructed epidermis, 0.04% AM, sample taken at 1 h", "result": 143, "unit": "%"}, {"measurement": "passage of [14C]-caffeine, percentage of passage relative to an untreated control", "setting": "Batch 2 of reconstructed epidermis, 0.04% AM, sample taken at 2 h", "result": "65 * %"}, {"measurement": "passage of [14C]-caffeine, percentage of passage relative to an untreated control", "setting": "Batch 2 of reconstructed epidermis, 0.04% AM, sample taken at 3 h", "result": 92, "unit": "%"}, {"measurement": "passage of [14C]-caffeine, percentage of passage relative to an untreated control", "setting": "Batch 2 of reconstructed epidermis, 0.04% AM, sample taken at 4 h", "result": "78 * %"}, {"measurement": "passage of [14C]-caffeine, percentage of passage relative to an untreated control", "setting": "Batch 2 of reconstructed epidermis, 0.04% AM, sample taken at 5 h", "result": 84, "unit": "%"}, {"measurement": "passage of [14C]-caffeine, percentage of passage relative to an untreated control", "setting": "Batch 2 of reconstructed epidermis, 0.04% AM, sample taken at 6 h", "result": "80 * %"}, {"measurement": "passage of [14C]-caffeine, percentage of passage relative to an untreated control", "setting": "Batch 2 of reconstructed epidermis, 0.04% AM, sample taken at 7 h", "result": 91, "unit": "%"}, {"measurement": "passage of [14C]-caffeine, percentage of passage relative to an untreated control", "setting": "Batch 2 of reconstructed epidermis, 0.04% AM, sample taken at 8 h", "result": "88 * %"}, {"measurement": "passage of [14C]-caffeine, percentage of passage relative to an untreated control", "setting": "Batch 2 of reconstructed epidermis, 0.04% AM, sample taken at 9 h", "result": 93, "unit": "%"}, {"measurement": "passage of [14C]-caffeine, percentage of passage relative to an untreated control", "setting": "Batch 2 of reconstructed epidermis, 0.04% AM, sample taken at 10 h", "result": "85 * %"}, {"measurement": "passage of [14C]-caffeine, percentage of passage relative to an untreated control", "setting": "Batch 2 of reconstructed epidermis, 0.04% AM, sample taken at 24 h", "result": 99, "unit": "%"}, {"measurement": "passage of [14C]-caffeine, percentage of passage relative to an untreated control", "setting": "Batch 2 of reconstructed epidermis, 0.2% AM, sample taken at 1 h", "result": 162, "unit": "%"}, {"measurement": "passage of [14C]-caffeine, percentage of passage relative to an untreated control", "setting": "Batch 2 of reconstructed epidermis, 0.2% AM, sample taken at 2 h", "result": "61 * %"}, {"measurement": "passage of [14C]-caffeine, percentage of passage relative to an untreated control", "setting": "Batch 2 of reconstructed epidermis, 0.2% AM, sample taken at 3 h", "result": 82, "unit": "%"}, {"measurement": "passage of [14C]-caffeine, percentage of passage relative to an untreated control", "setting": "Batch 2 of reconstructed epidermis, 0.2% AM, sample taken at 4 h", "result": "67 * %"}, {"measurement": "passage of [14C]-caffeine, percentage of passage relative to an untreated control", "setting": "Batch 2 of reconstructed epidermis, 0.2% AM, sample taken at 5 h", "result": "75 * %"}, {"measurement": "passage of [14C]-caffeine, percentage of passage relative to an untreated control", "setting": "Batch 2 of reconstructed epidermis, 0.2% AM, sample taken at 6 h", "result": "75 * %"}, {"measurement": "passage of [14C]-caffeine, percentage of passage relative to an untreated control", "setting": "Batch 2 of reconstructed epidermis, 0.2% AM, sample taken at 7 h", "result": "84 * %"}, {"measurement": "passage of [14C]-caffeine, percentage of passage relative to an untreated control", "setting": "Batch 2 of reconstructed epidermis, 0.2% AM, sample taken at 8 h", "result": "80 * %"}, {"measurement": "passage of [14C]-caffeine, percentage of passage relative to an untreated control", "setting": "Batch 2 of reconstructed epidermis, 0.2% AM, sample taken at 9 h", "result": 88, "unit": "%"}, {"measurement": "passage of [14C]-caffeine, percentage of passage relative to an untreated control", "setting": "Batch 2 of reconstructed epidermis, 0.2% AM, sample taken at 10 h", "result": "80 * %"}, {"measurement": "passage of [14C]-caffeine, percentage of passage relative to an untreated control", "setting": "Batch 2 of reconstructed epidermis, 0.2% AM, sample taken at 24 h", "result": 95, "unit": "%"}, {"measurement": "slowing down of caffeine passage compared with vitamin C (reference molecule)", "setting": "result in words, comparison with vitamin C 200 μg/ml", "result": "greater"}, {"measurement": "effect on the passage of the radiolabelled caffeine through the reconstructed epidermides (barrier function)", "setting": "result in words, two batches of reconstructed epidermis", "result": "slows down the passage of the radiolabelled caffeine"}]}]}
